According to patent US11028111B2, “Compound for treating metabolic diseases and preparation method and use thereof” (Xi' An Biocare Pharma Ltd., priority 2017, dated 2021):

Experiments:
[1] = test system: 17α-Ethinylestradiol (E2-17α) induced cholestasis in rats; assay: Serum ALT, AST, ALP in E2-17α induced cholestasis rats; format: in vivo, Sprague Dawley rats; conditions: for Serum ALP / Serum ALT / Serum AST: E2-17α cholestasis rats after intragastric administration, x ± s; for Values of ALT, AST, and ALP (serum): E2-17α cholestasis rats, in words
Description: (§1) 17α-Ethinylestradiol (E2-17α) was administered by subcutaneous injection into the neck for model establishment for 7 days. Meantime, the test compounds were suspended in a 1% CMC-Na solution and administered by intragastric administration for 7 days during the E2-17α modeling.
(§2) E2-17α in propylene glycol was administered to rats for 7 days to establish the model, and different test samples in CMC-Na solution were administered by intragastric administration. On the 8th day, 1 mL of rat fasting blood sample was collected for detection of serum biochemical indicators, and E2-17α in propylene glycol was continuously administered to establish the model, and different test samples CMC-Na solution were administered by intragastric administration. After 0.5 hours of administration on the 9th day, the rats were weighed and anesthetized with 10% urethane (10 mL/kg) via intraperitoneal injection. After anesthesia, the rat was fixed on a board. A midline abdominal incision was made from the upper acetabular area, and the incision was about 2 to 3 cm. The indoor temperature should be maintained during the experiment, the body temperature of the rats was maintained and bile outflow was promoted. Handle of ophthalmic forceps was used to turn the liver up and find the duodenum and stomach junction. A suture (size 0) was placed at the junction to reserve. On the duodenum, about 2 cm away from the pylorus, a thin tube with a yellow transparent tube perpendicular to the duodenum could be found passing through the pancreas, that is, the common bile duct. At the junction of the common bile duct and the duodenum, the common bile duct was separated by an ophthalmic curved forceps, but was careful not to break the small blood vessels around the bile duct and avoided stimulating the pancreatic tissue by hand. After the separation, two sutures were place, and the suture close to the intestine end was ligated, as a traction suture, ophthalmic scissors were used to obliquely cut a small opening in the wall of the tube, a prepared pancreatic juice collection tube was inserted into the small opening. A mixture of yellow bile and pancreatic juice flowed out immediately after the insertion. The tube was ligated and fixed, and this tube was used to collect bile. After completion of the intubation, the skin was sutured. The other end of the bile duct intubation was taken out, flowing out to a fixed 0.5 mL centrifuge tube. Bile was continuously collected 8 times once every 15 minutes, until 120 minutes.
The blood sample was allowed to stand in a 37° C. water bath for 10 minutes, centrifuged at 3000 rpm (1368 g)×10 min, the serum was separated conventionally, dispensed and frozen at −20° C. for storage. The indicators to be detected in serum included ALT, AST, and ALP. The detection methods of the above indicators were all carried out in accordance with the relevant instructions of the kit.
(§3) The data were analyzed using SPSS18.0 statistics software. Measurement data were compared between the two groups using the t test. Multiple groups of means were compared using one-way analysis of variance (ANOVA) and multiple comparisons between groups. Data mean±standard error (Mean±SEM.) or mean±standard deviation (Mean±SD.).

[2] = test system: 17α-Ethinylestradiol (E2-17α) induced cholestasis in rats; assay: Bile discharge in 17α-ethinylestradiol (E2-17α) induced cholestasis in rats; format: in vivo, Sprague Dawley rats; conditions: for Bile discharge amount compared with the ursodeoxycholic acid group: 105 minutes after administration, UDCA 15 mg/kg; for Bile flow rate compared with the E2-17α group / Effect on ameliorating intrahepatic cholestasis, promoting bile excretion: E2-17α cholestasis rats; for Bile flow rate compared with the E2-17α group: P<0.05 vs E2-17α; for Effect on ameliorating intrahepatic cholestasis, promoting bile excretion: conclusion
Description: Preparation of 1.0% CMC-Na solution: 1 p CMC-Na powder was weighed and added to 100 mL (50° C.) of distilled water, the mixture was rapidly stirred with a stirrer for 1 hour to fully swell, thereby to obtain a 1% CMC-Na solution.
Preparation of E2-17α solution in propylene glycol: 54/0.98=56 mp of E2-17α was weighed, dissolved in […] of propane-1,2-diol, shaked by a vortexer for 1 hour, thereby to obtain a 7 mp/mL suspension of E2-17α.
as §1, §2
After completion of the intubation, the skin was sutured to prevent water evaporation of the abdominal cavity. The other end of the bile duct intubation was taken out, and the bile flowed out to a fixed 0.5 mL collection tube. Bile was continuously collected 8 times once every 15 minutes for a total of 120 minutes. Before the experiment, the collection tube was accurately weighed using an analytical balance. After the bile was collected in the experiment, the total weight of the bile and the collection tube was weighed, and the weight of the bile in the tube was calculated by subtraction and converted to a volume based on 1 g/mL.
as §3

[3] = test system: rat model of cirrhotic portal hypertension (TAA); assay: Portal vein pressure in TAA-induced rat model of cirrhotic portal hypertension; format: in vivo, rats; conditions: i.g.
Description: 1) Preparation of saline solution of TAA: 10 g of thioacetamide (TAA) was weighed and dissolved in 100 mL of saline solution, and then filtered through a 0.22 μm sterile membrane filter into a sterile bottle.
2) Preparation of 0.5% CMC-Na suspension of test compound: 400 mg of Compound 1-H, Compound 1-IP, Compound 1-Cl, Compound 1-Mel or Compound 2-0 were weighed and dissolved in 100 mL of 0.5% CMC-Na solution, and shaken by a vortexer for 30 minutes, thereby to obtain 20 mg/Kg (high dose) groups. That is, CMC-Na suspension of 4 mg/mL of Compounds 1-H, 1-IP, 1-Cl, 1-Mel or 2-0. For the middle and low dose groups, drug preparation methods were the same.
(§4) A rat model of cirrhotic portal hypertension was established by intraperitoneal injection of TAA. Except that the blank control group was intraperitoneally injected with saline, remaining animals were intraperitoneally injected (i.p.) with 10% thioacetamide (TAA) in saline solution to establish the model. The dose was 200 mg/Kg, and the administration volume was 2 mL/Kg. All experimental animals were intraperitoneally injected with TAA or an equal volume of saline once every three days. Before each dose, the rat shaving beddings should be replaced by clean ones in advance. The body weight was measured once every two modeling administration. The body weight of the rats increased or decreased by 10% compared with the previous one, the dose of TAA increased or decreased by […] correspondingly. The administration was individualized to strictly control body weight change of each rat, which could effectively improve the success rate and uniformity of modeling.
The successfully modeled animals were randomly grouped, 12 rats per group, and 20 rats in the blank control group. Portal hypertension was induced by TAA in rats, and a portal hypertension model was established after 13 days. The test compound was administered once a day for 10 days. […]
Rats were fasted for 12 hours before the experiment, and were anesthetized with 10% chloral hydrate via intraperitoneal injection. […] Stable portal vein pressure was measured. […]

[4] = test system: rat model of cirrhotic portal hypertension (TAA); assay: Liver appearance and liver pathological sections (Masson, HE) in TAA cirrhotic portal hypertension rats; format: in vivo
Description: as §4
(§5) The successfully modeled animals were randomly grouped, 12 rats per group, and 20 rats in the blank control group. Portal hypertension was induced by TAA in rats, and a portal hypertension model was established after 13 days. The test compound was administered once a day for 10 days. The specific groupings are shown as follows:
2) A small piece at same part of the liver of the rat was cut and fixed in a 10% formaldehyde solution for tissue section pathology observation. An appropriate size of the liver was cut off, and the blood on the surface was washed off quickly with saline, put into a sterile EP tube, cryopreserved in liquid nitrogen for subsequent experiments.

[5] = test system: rat model of cirrhotic portal hypertension (TAA); assay: Serum indicators (ALT, AST, ALP, ALB, γ-GT, TBA) in TAA cirrhotic portal hypertension rats; format: in vivo; conditions: for Serum ALT level / Serum AST level: P<0.05
Description: as §4, §5
At the end of the administration, orbital blood was collected from the rats. The blood sample was placed in a 37° C. water bath for 10 minutes, centrifuged for 10 minutes at 3000 r/min (1370 g). Upper layer of the serum was taken and detected directly, or temporarily stored at −80° C., for serologic indicator measurement. After the blood samples were collected, the rats were fed with foods and water for 3 days.
1) 1.5 mL of orbital blood was collected before the experiment, of which the steps were the same as the aforesaid steps, to measure serum ALT, AST, ALP, γ-GT and TBA contents.

[6] = all administration groups, P<0.05, P<0.01

Compound	Serum ALP [1]	Serum ALT [1]	Serum AST [1]	Values of ALT, AST, and ALP (serum) [1]	Bile discharge amount compared with the ursodeoxycholic acid group [2]	Bile flow rate compared with the E2-17α group [2]	Effect on ameliorating intrahepatic cholestasis, promoting bile excretion [2]	other results
CC[C@@H]1C2C[C@H](O)CC[C@]2(C)C2CC[C@@]3(C)C(CC[C@@H]3[C@H](C)CCOP3(=O)OCC[C@@H](c4ccnc(Cl)c4)O3)C2[C@@H]1O (some centres unmarked) [Compound 1-Cl]	226.65 ± 12.38 U/L	77.36 ± 11.42 U/L	230.89 ± 12.38 U/L	lower	significantly higher	significantly increased	significant effect	–
CC[C@@H]1C2C[C@H](O)CC[C@]2(C)C2CC[C@@]3(C)C(CC[C@@H]3[C@H](C)CCO[P@@]3(=O)OCC[C@@H](c4ccncc4)O3)C2[C@@H]1O (some centres unmarked) [Compound 1-H]	218.64 ± 18.94 U/L	72.36 ± 14.74 U/L	228.82 ± 17.74 U/L	lower	significantly higher	significantly increased	significant effect	Mean percentage change of portal vein pressure (vs mean of TAA group) ([3]; TAA + 5 mg/Kg): > 10%; Mean percentage change of portal vein pressure (vs mean of TAA group) ([3]; TAA + 10 mg/Kg): > 10%; Mean percentage change of portal vein pressure (vs mean of TAA group) ([3]; TAA + 20 mg/Kg): > 10%; Appearance of liver and spleen (liver cirrhosis nodules) compared with TAA group ([4]; TAA + 5 mg/Kg): milder; Liver pathological sections (Masson, HE): liver fibrosis ([4]; TAA + 5 mg/Kg): symptoms of liver fibrosis were ameliorated; Effect on hyperplasia of liver fibrous tissue and pseudolobule formation (pathological indicators) ([4]; TAA rats, all dose groups): certain improvement effects; Serum ALT level ([5]; 5 mg/Kg group): decreased; Serum AST level ([5]; 5 mg/Kg group): decreased; Serum ALT level ([5]; 10 mg/Kg group): decreased; Serum AST level ([5]; 10 mg/Kg group): decreased; Serum ALT level ([5]; 20 mg/Kg group): decreased; Serum AST level ([5]; 20 mg/Kg group): decreased; Serum TBA level ([5]; all administration groups, P<0.01): decreased; Serum ALP level (FIG. 10 (C)) [5, 6]: decreased; Serum γ-GT level [5, 6]: decreased
CC[C@@H]1C2C[C@H](O)CC[C@]2(C)C2CC[C@@]3(C)C(CC[C@@H]3[C@H](C)CCO[P@](=O)(N[C@@H](C)C(=O)COC(C)C)Oc3ccccc3)C2[C@@H]1O (some centres unmarked) [Compound 2-0]	220.35 ± 12.92 U/L	78.64 ± 10.65 U/L	236.59 ± 13.06 U/L	lower	–	significantly increased	significant effect	–
C[C@H](CCC(=O)O)[C@H]1CC[C@H]2[C@@H]3[C@@H](O)C[C@@H]4C[C@H](O)CC[C@]4(C)[C@H]3CC[C@]12C [UDCA, ursodeoxycholic acid, reference compound]	242.18 ± 12.10 U/L	85.55 ± 13.80 U/L	263.36 ± 15.35 U/L	–	–	–	–	–
CC[C@@H]1C2C[C@H](O)CC[C@]2(C)C2CC[C@@]3(C)C(CC[C@@H]3[C@H](C)CCOP3(=O)OC(C)C[C@@H](c4ccncc4)O3)C2[C@@H]1O (some centres unmarked) [Compound 1-Me1]	235.64 ± 16.26 U/L	80.64 ± 13.22 U/L	252.18 ± 16.59 U/L	lower	–	significantly increased	significant effect	–
CC(C)[C@@H]1C2C[C@H](O)CC[C@]2(C)C2CC[C@@]3(C)C(CC[C@@H]3[C@H](C)CCOP3(=O)OCC[C@@H](c4ccncc4)O3)C2[C@@H]1O (some centres unmarked) [Compound 1-IP]	230.92 ± 14.00 U/L	87.42 ± 11.72 U/L	258.83 ± 10.82 U/L	lower	–	significantly increased	significant effect	–
